Test results published in patent US6627441B1, “Increasing levels of growth regulator and/or water stress during embryo development” (priority 1998, dated 2003).

How the values were obtained:
[1] = system: somatic embryos; assay: High intensity water stressing and ABA, inhibition of precocious germination (Example 3); format: cell-based, white spruce and Norway spruce
Method: Somatic embryos were plated on medium containing PEG adjusted to 290 mmol/kg PEG and 16 μM ABA then either transferred to fresh medium of the same composition every two weeks, or transferred every two weeks to medium containing increasing ABA and PEG as outlined in Table 3.

[2] = system: white spruce somatic embryos; assay: Effect of water stress and ABA on somatic embryo moisture contents (Example 4); format: cell-based
Method: Water potentials were measured for liquid media containing various osmotica at a range of concentrations, which were plotted on a curve. Determinations were made using a vapour pressure osmometer (Wescor). Moisture content determinations were done using methods described previously by Attree et al. (U.S. Pat. No. 5,464,769).
Embryos were cultured on medium containing 3% sucrose and ABA, with additional osmoticum adjusted to vary water potentials, as shown in Table 4.
Embryos were cultured for six weeks and moisture contents determined. Determinations for each treatment were made weekly, with three replicates per treatment. 50 embryos per replicate were used. In some instances, particularly for the control with low osmoticum, insufficient embryos were produced. In these cases, the minimum number of embryos used per replicate was thirty. For weeks 0 to 2, the embryos were too small to be used for moisture content determinations, so whole tissue was used instead.

[3] = system: white spruce somatic embryos; assay: Somatic seedling length after desiccation and germination (Example 8); format: cell-based; settings: ABA raised to 40 μM and water potential to 400 or 540 mmol/kg with PEG, versus control; two weeks
From the text: In order to desiccate the somatic embryos, they were transferred on their filter paper supports to an empty petri dish. The lid was replaced and left unsealed to prevent contamination while allowing the moisture to escape from the dish. Somatic embryos were desiccated in a sterile chamber in which sterile air at ambient relative humidity (usually 20-60% r.h.) was passed. Similarly, embryos may be desiccated in one or more controlled gaseous environments of relative humidity, ranging from about 5% to 100%. […] Embryos were usually left two weeks to dry. Desiccated embryos can then be stored, preferably frozen, or germinated directly.
For germination, the somatic embryos upon their filter paper supports were rehydrated on germination medium. This consisted of ½ LM, 2% sucrose, 0.7% agar (Sigma), with no growth regulators, glutamine or casein hydrolysate, in petri dishes or Sigma PHYTATRAYS™. […]
Somatic embryos were produced following the methods described in Example 4. […] One batch of desiccated spruce embryos produced using these methods was measured and a moisture content of about 7.7 (±0.2)% recorded. […] Two weeks after imbibition, the somatic plantlets were removed from the culture medium and their lengths were measured. Between 53 to 63 somatic plantlets were recorded per treatment.

[4] = system: white spruce somatic embryos; assay: Germination and transfer to soil after increasing PEG/ABA culture (Example 8); format: cell-based
Method: In another experiment, white spruce somatic embryos were transferred through the 1/20 hormone increasing PEG/ABA liquid maturation culture (Example 7, treatment 8), then plated onto 20-40 μM ABA, 290-540 mmol/kg PEG transfer schedule (Example 4, treatment 6) followed by desiccation at 4° C. 203 embryos were selected and germinated at 4-12° C. for 4 weeks and produced roots and shoots with needles at a frequency of 191/203=94%. White spruce somatic seedlings produced subsequently using these methods survived transfer to soil in a greenhouse and underwent continued growth at frequencies of 95-100%. However, prolonging maturation of cotyledonary embryos in the presence of high water stress and ABA was detrimental to germination. Thus, after seven to eight weeks of culture of spruce somatic embryos the germination vigour (seedling elongation) and frequencies decreased. Late stage water stress of mid to late cotyledonary stage embryos to below about 30-40% moisture content preferably should not be carried out in the presence of a replenishing source of ABA. This will presumably prevent build up of endogenous ABA, and allow endogenous ABA levels to naturally decline.

[5] = treatment 3: PEG medium 290 mmol/kg with constant ABA 20 μM, six weeks

For `CC1=CC(=O)CC(C)(C)[C@@]1(O)/C=C/C(C)=C\C(=O)O` [ABA, abscisic acid], the precocious germination ([1]; maintained on 290 mmol/kg PEG and 16 μM ABA, fresh medium every two weeks, week 10) was “precociously germinated”, the precocious germination ([1]; schedule of increasing ABA (16 to 56 μM) and PEG (290 to 650 mmol/kg), biweekly transfer, 10 weeks) was “no evidence of precocious germination” and the greening of embryos ([2]; treatment 1: ABA 20 to 40 μM, 3% sucrose, 190 mmol/kg, after six weeks) was “evidence of greening”. For the same compound, the greening of embryos [2, 5] was “slight greening of cotyledons”, the “moisture content of somatic embryos” value [2, 5] was “below 55%” and the “moisture content of somatic embryos” value ([2]; treatment 4: PEG medium 290 mmol/kg with increasing ABA 20, 30, 40 μM, compared with treatment 3) was “further slight reductions in moisture content”. The greening of embryos ([2]; treatment 5: ABA to 40 μM, PEG medium to 400 mmol/kg) was “No greening”, the “moisture content of somatic embryos” value ([2]; treatment 5: ABA to 40 μM, PEG medium to 400 mmol/kg after week two, compared with treatment 4) was “a further reduction in moisture content” and the greening of embryos ([2]; treatment 6: ABA to 40 μM, PEG medium to 540 mmol/kg) was “No greening”. The “yield of mature somatic embryos” value ([2]; treatment 6: PEG water potential raised to 540 mmol/kg with ABA to 40 μM) was 300-350 mature somatic embryos per dish, the “moisture content of somatic embryos” value ([2]; treatment 6: PEG water potential raised to 540 mmol/kg with ABA to 40 μM, end of six-week culture) was roughly 40% and the “increase in plantlet length” value [3] was roughly 50%. The “frequency of roots and shoots with needles” value ([4]; Example 7 treatment 8, then 20-40 μM ABA, 290-540 mmol/kg PEG schedule, desiccation at 4° C., germinated at 4-12° C. for 4 weeks) was 94% and the “survival of transfer to soil in a greenhouse with continued growth” value ([4]; somatic seedlings produced using increasing PEG/ABA methods) was 95-100%.
